# Laboratory results published in patent US20230183193A1, “4-DIFLUOROMETHYL BENZOYL AMIDES WITH HERBICIDAL ACTION” (BAYER CROPSCIENCE AKTIENGESELLSCHAFT, priority 2017, published 2023).
# Assays:
# Polygonum convolvulus = assay: Pre-emergence herbicidal action, POLCO; assay type: in vivo
# Text: (§1) 1. Pre-Emergence Herbicidal Action Against Harmful Plants Seeds of monocotyledonous and dicotyledonous weed plants and crop plants are laid out in sandy loam soil in wood-fiber pots and covered with soil. The compounds of the invention, formulated in the form of wettable powders (WP) or as emulsion concentrates (EC), are then applied to the surface of the covering soil in the form of an aqueous suspension or emulsion at a water application rate equating to […], with addition of 0.2% wetting agent. After the treatment, the pots are placed in a greenhouse and kept under good growth conditions for the trial plants. The damage to the test plants is scored visually after a test period of 3 weeks by comparison with untreated controls (herbicidal activity in percent (%): 100% activity=the plants have died, 0% activity=like control plants).
# (§2) For comparison, the herbicidal activity of numerous compounds according to the invention was tested with the structurally closest compounds known from the documents WO 2011/035874, WO 2012/028579 and WO 2012/126932, by the pre- and post-emergence method.
# Viola tricolor [1] = assay: Post-emergence herbicidal action, VIOTR; assay type: in vivo
# Method in brief: (§3)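 Post-emergence spray; one-leaf stage (2–3 wk after sowing), sandy loam, greenhouse. WP/EC in water, 600 to […], +0.2% wetting agent. Visual % damage vs untreated at ~3 wk; 100% = plants dead.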
# Abutilon theophrasti [2] = assay: Pre-emergence herbicidal action, ABUTH; assay type: in vivo
# Method in brief: (§4)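 Weed seeds were laid out in sandy loam and covered with soil, then the soil surface was treated with an aqueous suspension or emulsion of the formulated compound containing 0.2% wetting agent. Pots stayed in the greenhouse for 3 weeks before damage was rated visually against untreated plants.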
# Matricaria inodora = assay: Pre-emergence herbicidal action, MATIN; assay type: in vivo; conditions: for Herbicidal efficacy against MATIN: Table K
# Method in brief: as §4
# Alopecurus myosuroides [3] = assay: Post-emergence herbicidal action, ALOMY; assay type: in vivo
# Method in brief: as §3
# Amaranthus retroflexus [4] = assay: Post-emergence herbicidal action, AMARE; assay type: in vivo; conditions: 80 g/ha, Table D
# Method in brief: as §3
# Stellaria media [5] = assay: Post-emergence herbicidal action, STEME; assay type: in vivo
# Method in brief: as §3
# Amaranthus retroflexus [6] = assay: Pre-emergence herbicidal action, AMARE; assay type: in vivo
# Method in brief: as §4
# Alopecurus myosuroides [7] = assay: Pre-emergence herbicidal action, ALOMY; assay type: in vivo
# Method in brief: as §4
# Avena fatua [8] = assay: Pre-emergence herbicidal action, AVEFA; assay type: in vivo
# Method in brief: as §4
# Setaria viridis [9] = assay: Post-emergence herbicidal action, SETVI; assay type: in vivo
# Method in brief: as §3
# Viola tricolor [10] = assay: Pre-emergence herbicidal action, VIOTR; assay type: in vivo
# Method in brief: as §4
# Veronica persica = assay: Pre-emergence herbicidal action, VERPE; assay type: in vivo; conditions: 80 g/ha, comparison with WO 2011035874, Table H
# Text: as §1, §2
# Abutilon theophrasti [11] = assay: Post-emergence herbicidal action, ABUTH; assay type: in vivo; conditions: 80 g/ha
# Method in brief: as §3
# ECHCG [12] = assay: Pre-emergence herbicidal action, ECHCG; assay type: in vivo, Echinochloa crus-galli
# Cyperus serotinus = assay: Pre-emergence herbicidal action, CYPES; assay type: in vivo
# Method in brief: as §4
# Avena fatua [13] = assay: Post-emergence herbicidal action, AVEFA; assay type: in vivo
# Method in brief: as §3
# Pharbitis purpureum = assay: Post-emergence herbicidal action, PHBPU; assay type: in vivo; conditions: 80 g/ha, Table D
# Method in brief: as §3
# Stellaria media [14] = assay: Pre-emergence herbicidal action, STEME; assay type: in vivo
# Method in brief: as §4
# Setaria viridis [15] = assay: Pre-emergence herbicidal action, SETVI; assay type: in vivo
# Method in brief: as §4
# ECHCG [16] = assay: Pre-emergence herbicidal action, ECHCG; assay type: in vivo; conditions: 80 g/ha, comparison with WO 2011035874, Table G
# Text: as §1
# ECHCG [17] = assay: Post-emergence herbicidal action, ECHCG; assay type: in vivo; conditions: 80 g/ha, Table C
# Method in brief: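 Weed and crop plants grown in sandy loam in the greenhouse, treated at the one-leaf stage 2–3 weeks after sowing. Damage scored visually after about 3 weeks vs untreated controls (0% = control, 100% = dead).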
# [18] = 80 g/ha, comparison with WO 2011035874, Table H
# [19] = 80 g/ha, comparison with WO 2011035874, Table G
# [20] = dosage 320 g/ha, scored visually after 3 weeks vs untreated controls
smiles,measurement,setting,value
Cn1nnnc1NC(=O)c1ccc(C(F)F)c(S(C)(=O)=O)c1Cl [Example 1-51],Herbicidal efficacy against POLCO,Polygonum convolvulus; [18],0%
same,Herbicidal efficacy against POLCO,"Polygonum convolvulus; dosage 20 g/ha, Table K",30
same,Herbicidal efficacy against POLCO,"Polygonum convolvulus; dosage 80 g/ha, Table K",80
same,Herbicidal efficacy against POLCO,"Polygonum convolvulus; dosage 320 g/ha, Table K",90
same,Herbicidal efficacy against VIOTR,Viola tricolor [1]; 5 g/ha,100
same,Herbicidal efficacy against VIOTR,Viola tricolor [1]; 20 g/ha,100
same,Herbicidal efficacy against VIOTR,Viola tricolor [1]; 80 g/ha,100
same,herbicidal activity VIOTR,"Viola tricolor [1]; 80 g/ha, Table D",100%
same,Herbicidal efficacy against ABUTH,Abutilon theophrasti [2]; [19],100%
same,Herbicidal efficacy against ABUTH,"Abutilon theophrasti [2]; dosage 20 g/ha, Table K",100
same,Herbicidal efficacy against ABUTH,"Abutilon theophrasti [2]; dosage 80 g/ha, Table K",100
same,Herbicidal efficacy against ABUTH,"Abutilon theophrasti [2]; dosage 320 g/ha, Table K",100
same,herbicidal activity ABUTH,Abutilon theophrasti [2]; [20],100%
same,Herbicidal efficacy against MATIN,Matricaria inodora; dosage 20 g/ha,90
same,Herbicidal efficacy against MATIN,Matricaria inodora; dosage 80 g/ha,100
same,Herbicidal efficacy against MATIN,Matricaria inodora; dosage 320 g/ha,100
same,herbicidal activity MATIN,Matricaria inodora; [20],100%
same,Herbicidal efficacy against ALOMY,Alopecurus myosuroides [3]; 5 g/ha,40
same,Herbicidal efficacy against ALOMY,Alopecurus myosuroides [3]; 20 g/ha,90
same,Herbicidal efficacy against ALOMY,Alopecurus myosuroides [3]; 80 g/ha,100
same,herbicidal activity ALOMY,"Alopecurus myosuroides [3]; 80 g/ha, Table C",100%
same,herbicidal activity AMARE,Amaranthus retroflexus [4],100%
same,Herbicidal efficacy against STEME,Stellaria media [5]; 5 g/ha,100
same,Herbicidal efficacy against STEME,Stellaria media [5]; 20 g/ha,100
same,Herbicidal efficacy against STEME,Stellaria media [5]; 80 g/ha,100
same,Herbicidal activity STEME,"Stellaria media [5]; 80 g/ha, Table D",100%
same,Herbicidal efficacy against STEME,"Stellaria media [5]; 80 g/ha, comparison with WO2011035874, Table F",40%
same,Herbicidal efficacy against AMARE,Amaranthus retroflexus [6]; [18],100%
same,herbicidal activity AMARE,Amaranthus retroflexus [6]; [20],100%
same,Herbicidal efficacy against ALOMY,Alopecurus myosuroides [7]; 20 g/ha,80
same,Herbicidal efficacy against ALOMY,Alopecurus myosuroides [7]; 80 g/ha,100
same,Herbicidal efficacy against ALOMY,Alopecurus myosuroides [7]; [19],10%
same,Herbicidal efficacy against ALOMY,Alopecurus myosuroides [7]; 320 g/ha,100
same,herbicidal activity ALOMY,Alopecurus myosuroides [7]; [20],100%
same,Herbicidal efficacy against AVEFA,Avena fatua [8]; 80 g/ha,90
same,Herbicidal efficacy against AVEFA,Avena fatua [8]; [19],0%
same,Herbicidal efficacy against AVEFA,Avena fatua [8]; 320 g/ha,100
same,herbicidal activity AVEFA,Avena fatua [8]; [20],100%
same,Herbicidal efficacy against SETVI,Setaria viridis [9]; 5 g/ha,90
same,Herbicidal efficacy against SETVI,Setaria viridis [9]; 20 g/ha,100
same,Herbicidal efficacy against SETVI,Setaria viridis [9]; 80 g/ha,100
same,herbicidal activity SETVI,"Setaria viridis [9]; 80 g/ha, Table C",100%
same,Herbicidal efficacy against VIOTR,Viola tricolor [10]; [18],60%
same,Herbicidal efficacy against VIOTR,"Viola tricolor [10]; dosage 20 g/ha, Table K",100
same,Herbicidal efficacy against VIOTR,"Viola tricolor [10]; dosage 80 g/ha, Table K",100
same,Herbicidal efficacy against VIOTR,"Viola tricolor [10]; dosage 320 g/ha, Table K",100
same,herbicidal activity VIOTR,Viola tricolor [10]; [20],100%
same,Herbicidal efficacy against VERPE,Veronica persica,100%
same,herbicidal activity ABUTH,Abutilon theophrasti [11]; Table D,100%
same,Herbicidal efficacy against ABUTH,"Abutilon theophrasti [11]; comparison with WO2011035874, Table F",80%
same,Herbicidal efficacy against ECHCG,ECHCG [12]; 20 g/ha,100
same,Herbicidal efficacy against ECHCG,ECHCG [12]; 80 g/ha,100
same,Herbicidal efficacy against ECHCG,ECHCG [12]; 320 g/ha,100
same,Herbicidal efficacy against CYPES,Cyperus serotinus; 20 g/ha,90
same,Herbicidal efficacy against CYPES,Cyperus serotinus; 80 g/ha,90
same,Herbicidal efficacy against CYPES,Cyperus serotinus; [19],0%
same,Herbicidal efficacy against CYPES,Cyperus serotinus; 320 g/ha,100
same,herbicidal activity CYPES,Cyperus serotinus; [20],100%
same,Herbicidal efficacy against AVEFA,Avena fatua [13]; 5 g/ha,60
same,Herbicidal efficacy against AVEFA,Avena fatua [13]; 20 g/ha,90
same,Herbicidal efficacy against AVEFA,Avena fatua [13]; 80 g/ha,100
same,herbicidal activity AVEFA,"Avena fatua [13]; 80 g/ha, Table C",100%
same,Herbicidal activity PHBPU,Pharbitis purpureum,100%
same,Herbicidal efficacy against STEME,Stellaria media [14]; [18],90%
same,Herbicidal activity STEME,Stellaria media [14]; [20],100%
same,Herbicidal efficacy against SETVI,Setaria viridis [15]; 20 g/ha,100
same,Herbicidal efficacy against SETVI,Setaria viridis [15]; 80 g/ha,100
same,Herbicidal efficacy against SETVI,Setaria viridis [15]; [19],60%
same,Herbicidal efficacy against SETVI,Setaria viridis [15]; 320 g/ha,100
same,herbicidal activity SETVI,Setaria viridis [15]; [20],100%
same,Herbicidal efficacy against ECHCG,ECHCG [16],30%
same,Herbicidal activity ECHCG,ECHCG [17],100%
